From US20150175655A1 (priority 2012, published 2015) come the findings set out here.

SMILES strings stand for the structures.

The first test deals with T1, NS3 genotype 3a protease (UniProt Q81258).
T1 construct: Purified NS3 protease domain (amino acids 1-181) of the genotype 1b and 3a virus were generated as above; fused on or other part: N-terminal hexahistidine tag and rTEV protease cleavage site (vector p28-N6H-Tev-NS3(181)3)
T1 sequence (Q81258 1033-1663): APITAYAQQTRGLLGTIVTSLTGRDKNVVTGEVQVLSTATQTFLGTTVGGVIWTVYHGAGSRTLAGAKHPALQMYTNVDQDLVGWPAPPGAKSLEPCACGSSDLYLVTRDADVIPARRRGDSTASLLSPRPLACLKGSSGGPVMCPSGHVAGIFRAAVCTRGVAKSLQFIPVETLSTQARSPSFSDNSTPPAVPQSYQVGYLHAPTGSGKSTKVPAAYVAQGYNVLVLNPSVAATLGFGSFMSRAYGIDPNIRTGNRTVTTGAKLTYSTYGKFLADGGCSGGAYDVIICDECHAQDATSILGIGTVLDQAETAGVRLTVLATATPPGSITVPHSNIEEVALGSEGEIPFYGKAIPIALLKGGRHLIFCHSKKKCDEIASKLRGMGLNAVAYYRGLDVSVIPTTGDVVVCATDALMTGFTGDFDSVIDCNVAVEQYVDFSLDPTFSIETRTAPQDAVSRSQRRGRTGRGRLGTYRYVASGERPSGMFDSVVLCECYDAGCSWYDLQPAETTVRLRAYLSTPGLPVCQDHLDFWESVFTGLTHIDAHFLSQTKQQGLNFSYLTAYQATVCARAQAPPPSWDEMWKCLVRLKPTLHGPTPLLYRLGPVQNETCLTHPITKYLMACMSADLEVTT
As to the kind of experiment: Ki determination, NS3 protease genotype 3a (fluorogenic depsipeptide substrate). It counts as biochemical, hepatitis C virus. The note with it: 200 pM enzyme, 20 μM NS4A peptide, 2 μM substrate, read-out: Ki 3A. The text has this:
The coding sequences for the genotype 3 HCV protease domain was amplified by RT-PCR using a Titan One Tube RT-PCR Kit (Roche, Indianapolis, Ind.) and RNA extracted from HCV-positive human serum (BBI Diagnostics, MA) using a QIAmp UltraSens Virus Kit (Qiagen, Valencia, Calif.). 5′ PCR primers were designed to encode N-terminal hexahistidine tags and to insert in-frame rTEV protease cleavage sites into the NS3 protease coding sequences. The resulting DNA fragments were cloned into pET28 yielding the expression vectors p28-N6H-Tev-NS3(181)1a and p28-N6H-Tev-NS3(181)3, respectively.
BL21AI bacteria (Invitrogen, Carlsbad, Calif.) were transformed with genotype 1b or 3 NS3 expression vectors and used to inoculate a 20 L fermentation vessel (Sartorius BBI System Inc., Bethlehem, Pa.), containing 18 L of fresh 2YT medium supplemented with 50 μg/mL kanamycin. When cell densities reached an OD600 of 1, the temperature of the cultures was reduced from 37° C. to 28° C. and induction was immediately initiated by the addition of 30 μM ZnSO4, 14 mM L-arabinose and 1 mM Isopropyl β-D-thiogalactoside (IPTG) final concentrations. Cells were harvested by centrifugation four hours post-induction and were stored as frozen pellets at −80° C. prior to NS3 protein purification.
Bacterial pellets collected from the expression of genotype 3 HCV NS3 protease were homogenized in Lysis Buffer (25 mM tris, pH 7.5 buffer containing 150 mM NaCl and 1 mM phenylmethanesulfonyl fluoride (PMSF)) and passed through a microfluidizer at 18,000 pounds/in^2. Homogenized cell lysates were centrifuged at 30,000×g for 30 minutes at 4° C. The resulting P1 pellets were washed with Wash Buffer I (25 mM tris, pH 7.5 containing 1% CHAPS) followed by centrifugation at 10,000×g for 30 minutes at 4° C. […] The resulting P3 pellets were resuspended in Solubilization Buffer (20 ml of 25 mM tris, pH 7.5 containing 150 mM NaCl and 8 M urea) and incubated at 4° C. for one hour. Solubilized proteins were passed through a 0.45 micron filter. Protein concentrations were measured and the solutions were adjusted to 40 mM DTT, incubated for 30 minutes at 4° C. and then quickly diluted into Refolding Buffer (25 mM tris, pH 8.5, 0.8 M Guanidine-HCl, 0.4 M L-Arginine, 10 mM ZnSO4) while stirring. Protein solutions were incubated at 4° C. overnight to allow refolding. Refolded proteases were centrifuged at 30,000×g for 10 minutes to remove residual precipitates. Final protein concentrations were then measured and the NS3 proteases were aliquoted, snap frozen in liquid nitrogen and stored at −80° C.
Purified NS3 protease domain (amino acids 1-181) of the genotype 1b and 3a virus were generated as above. The internally quenched fluorogenic depsipeptide substrate Ac-DED(Edans)-EEAbuψ[COO]ASK(Dabcyl)-NH2 and a synthetic peptide containing the hydrophobic core residues of the NS4A protein cofactor ([…]; NS4A peptide) were obtained from Anaspec, Inc. (San Jose, Calif.). Other chemicals and biochemicals were of reagent grade or better and were purchased from standard suppliers.
Reactions were run at room temperature in buffer consisting of 50 mM HEPES, 40% glycerol, 0.05% Triton X-100, 10 mM DTT, and 10% DMSO. The final assay solutions contained 50 pM NS3 genotype 1b protease or 200 pM genotype 3a protease, 20 μM NS4A peptide, and 4 μM substrate (genotype 1 b) or 2 μM substrate (genotype 3a). Inhibitor concentrations varied from 100 nM to 5 pM in 3-fold dilutions, and no-inhibitor controls were included.
Compound dilutions were made in DMSO at 20× final concentration. Reaction mixtures were prepared in 96-well assay plates. A solution of enzyme and NS4A peptide in assay buffer (25 μL volume with both reagents at 4× final concentration) was mixed with 45 μL assay buffer and 5 μL of either inhibitor or DMSO, and pre-incubated at room temperature for 1 hour. The reaction was started by addition of 25 μL substrate solution at 4× final concentration. […]
Take `CC[C@@H]1[C@@H]2CN(C(=O)[C@H](C(C)(C)C)NC(=O)O[C@@H]3C[C@H]3CCCCCc3nc4ccc(OC)cc4nc3O2)[C@@H]1C(=O)N[C@]1(C(=O)NS(=O)(=O)C2CC2)C[C@H]1C(F)F` [Example 2, (1aR,5S,8S,9S,10R,22aR)-5-tert-butyl-N-[(1R,2R)-1-[(cyclopropylsulfonyl)carbamoyl]-2-(difluoromethyl)cyclopropyl]-9-ethyl-14-methoxy-3,6-dioxo-1,1a,3,4,5,6,9,10,18,19,20,21,22,22a-tetradecahydro-8H-7,10-methanocyclopropa[18,19][1,10,3,6]dioxadiazacyclononadecino[11,12-b]quinoxaline-8-carboxamide]: the Ki was 40 pM.
On to `CC[C@@H]1[C@@H]2CN(C(=O)[C@H](C(C)(C)C)NC(=O)O[C@@H]3C[C@H]3CCCCCc3nc4ccc(OC)cc4nc3O2)[C@@H]1C(=O)N[C@]1(C(=O)NS(=O)(=O)C2CC2)C[C@H]1CC` [Example 3, (1aR,5S,8S,9S,10R,22aR)-5-tert-butyl-N-{(1R,2R)-1-[(cyclopropylsulfonyl)carbamoyl]-2-ethylcyclopropyl}-9-ethyl-14-methoxy-3,6-dioxo-1,1a,3,4,5,6,9,10,18,19,20,21,22,22a-tetradecahydro-8H-7,10-methanocyclopropa[18,19][1,10,3,6]dioxadiazacyclononadecino[11,12-b]quinoxaline-8-carboxamide], for which the Ki turned out to be 560 pM.
Take `CC[C@@H]1[C@@H]2CN(C(=O)[C@H](C(C)(C)C)NC(=O)O[C@@H]3C[C@H]3CCCCCc3nc4ccc(OC)cc4nc3O2)[C@@H]1C(=O)N[C@]1(C(=O)NS(=O)(=O)C2(C)CC2)C[C@H]1CC` [Example 4, (1aR,5S,8S,9S,10R,22aR)-5-tert-butyl-9-ethyl-N-[(1R,2R)-2-ethyl-1-{[(1-methylcyclopropyl)sulfonyl]carbamoyl}cyclopropyl]-14-methoxy-3,6-dioxo-1,1a,3,4,5,6,9,10,18,19,20,21,22,22a-tetradecahydro-8H-7,10-methanocyclopropa[18,19][1,10,3,6]dioxadiazacyclononadecino[11,12-b]quinoxaline-8-carboxamide]: the Ki was 560 pM.
With `CC[C@@H]1[C@@H]2CN(C(=O)[C@H](C(C)(C)C)NC(=O)O[C@@H]3CCC[C@H]3CCCCCc3nc4ccc(OC)cc4nc3O2)[C@@H]1C(=O)N[C@]1(C(=O)NS(=O)(=O)C2(C)CC2)C[C@H]1C(F)F` [Example 6, (3aR,7S,10S,11S,12R,24aR)-7-tert-butyl-N-[(1R,2R)-2-(difluoromethyl)-1-{[(1-methylcyclopropyl)sulfonyl]carbamoyl}cyclopropyl]-11-ethyl-16-methoxy-5,8-dioxo-1,2,3,3a,5,6,7,8,11,12,20,21,22,23,24,24a-hexadecahydro-10H-9,12-methanocyclopenta[18,19][1,10,3,6]dioxadiazacyclononadecino[11,12-b]quinoxaline-10-carboxamide], the Ki was 620 pM.
Same read-out and setting: next, `CC[C@@H]1[C@@H]2CN(C(=O)[C@H](C(C)(C)C)NC(=O)O[C@@]3(C)C[C@@H]3CCCCCc3nc4ccc(OC)cc4nc3O2)[C@@H]1C(=O)N[C@]1(C(=O)NS(=O)(=O)C2(C)CC2)C[C@H]1C(F)F` [Example 8, (1aS,5S,8S,9S,10R,22aS)-5-tert-butyl-N-[(1R,2R)-2-(difluoromethyl)-1-{[(1-methylcyclopropyl)sulfonyl]carbamoyl}cyclopropyl]-9-ethyl-14-methoxy-1a-methyl-3,6-dioxo-1,1a,3,4,5,6,9,10,18,19,20,21,22,22a-tetradecahydro-8H-7,10-methanocyclopropa[18,19][1,10,3,6]dioxadiazacyclononadecino[11,12-b]quinoxaline-8-carboxamide]: 420 pM.

The same test, now with this note: read-out: Ki 3A, 200 pM enzyme, 20 μM NS4A peptide, 2 μM substrate.
In the case of `CC[C@@H]1[C@@H]2CN(C(=O)[C@H](C3CCCC3)NC(=O)O[C@@H]3C[C@H]3CCCCCc3nc4ccc(OC)cc4nc3O2)[C@@H]1C(=O)N[C@]1(C(=O)NS(=O)(=O)C2CC2)C[C@H]1C(F)F` [Example 15, (1aR,5S,8S,9S,10R,22aR)-5-cyclopentyl-N-[(1R,2R)-1-[(cyclopropylsulfonyl)carbamoyl]-2-(difluoromethyl)cyclopropyl]-9-ethyl-14-methoxy-3,6-dioxo-1,1a,3,4,5,6,9,10,18,19,20,21,22,22a-tetradecahydro-8H-7,10-methanocyclopropa[18,19][1,10,3,6]dioxadiazacyclononadecino[11,12-b]quinoxaline-8-carboxamide], the inhibitory constant (Ki) amounted to 300 pM.
For the molecule `COc1ccc2nc3c(nc2c1)O[C@H]1CN(C(=O)[C@H](C(C)(C)C)NC(=O)O[C@@H]2C[C@H]2CCCCC3)[C@H](C(=O)N[C@]2(C(=O)NS(=O)(=O)C3CC3)C[C@H]2C(F)F)[C@@H]1C` [Example 19, (1aR,5S,8S,9S,10R,22aR)-5-tert-butyl-N-[(1R,2R)-1-[(cyclopropylsulfonyl)carbamoyl]-2-(difluoromethyl)cyclopropyl]-14-methoxy-9-methyl-3,6-dioxo-1,1a,3,4,5,6,9,10,18,19,20,21,22,22a-tetradecahydro-8H-7,10-methanocyclopropa[18,19][1,10,3,6]dioxadiazacyclononadecino[11,12-b]quinoxaline-8-carboxamide], the Ki is 130 pM.
The same measure, in the same setting: next, `CC[C@@H]1C[C@]1(NC(=O)[C@@H]1[C@H](C)[C@@H]2CN1C(=O)[C@H](C(C)(C)C)NC(=O)O[C@@H]1C[C@H]1CCCCCc1nc3ccc(OC)cc3nc1O2)C(=O)NS(=O)(=O)C1CC1` [Example 20, (1aR,5S,8S,9S,10R,22aR)-5-tert-butyl-N-{(1R,2R)-1-[(cyclopropylsulfonyl)carbamoyl]-2-ethylcyclopropyl}-14-methoxy-9-methyl-3,6-dioxo-1,1a,3,4,5,6,9,10,18,19,20,21,22,22a-tetradecahydro-8H-7,10-methanocyclopropa[18,19][1,10,3,6]dioxadiazacyclononadecino[11,12-b]quinoxaline-8-carboxamide]: 530 pM.

One may read the Ki as the equilibrium dissociation constant of an inhibitor or competing ligand from its target.
